System: 485368-065-R4-J2-PDC spheroids with HUVEC/MSC, viability
Experiment: Anticancer human tumor 485368-065-R4-J2-PDC patient-derived pancreatic carcinoma cell line growth inhibition [CLK]
Conditions: for IC50: curve of first compound; for viability, T/C: stronger effect = lower value; active = viability on the fitted dose curve at most 10% of control; inactive = the rest
In short: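 Multi-cell-type spheroids combined patient-derived tumor cells with HUVEC endothelial cells and human mesenchymal stem cells. Paired agents were dosed in half-log steps down from about clinical Cmax, or from 10 microM where Cmax was unknown.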

[1] = second compound 0.0316 µM, first compound 0.0316 µM
[2] = second compound 0.0316 µM, first compound 0.1 µM
[3] = second compound 0.0316 µM, first compound 0.316 µM
[4] = second compound 0.0316 µM, first compound 1 µM
[5] = second compound 0.0316 µM, first compound 3.16 µM
[6] = second compound 0.0316 µM, first compound 10 µM
[7] = second compound 0.1 µM, first compound 0.0316 µM
[8] = second compound 0.1 µM, first compound 0.1 µM
[9] = second compound 0.1 µM, first compound 0.316 µM
[10] = second compound 0.1 µM, first compound 1 µM
[11] = second compound 0.1 µM, first compound 3.16 µM
[12] = second compound 0.1 µM, first compound 10 µM
[13] = second compound 0.316 µM, first compound 0.0316 µM
[14] = second compound 0.316 µM, first compound 0.1 µM
[15] = second compound 0.316 µM, first compound 0.316 µM
[16] = second compound 0.316 µM, first compound 1 µM
[17] = second compound 0.316 µM, first compound 3.16 µM
[18] = second compound 0.316 µM, first compound 10 µM
[19] = second compound 1 µM, first compound 0.0316 µM
[20] = second compound 1 µM, first compound 0.1 µM
[21] = second compound 1 µM, first compound 0.316 µM
[22] = second compound 1 µM, first compound 1 µM
[23] = second compound 1 µM, first compound 3.16 µM
[24] = second compound 1 µM, first compound 10 µM
[25] = second compound 3.16 µM, first compound 0.0316 µM
[26] = second compound 3.16 µM, first compound 0.1 µM
[27] = second compound 3.16 µM, first compound 0.316 µM
[28] = second compound 3.16 µM, first compound 1 µM
[29] = second compound 3.16 µM, first compound 3.16 µM
[30] = second compound 3.16 µM, first compound 10 µM
[31] = second compound 10 µM, first compound 0.0316 µM
[32] = second compound 10 µM, first compound 0.1 µM
[33] = second compound 10 µM, first compound 0.316 µM
[34] = second compound 10 µM, first compound 1 µM
[35] = second compound 10 µM, first compound 3.16 µM
[36] = second compound 10 µM, first compound 10 µM
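Note: spheroids exposed to compounds for seven days.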
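Throughout, for viability, T/C: 100% = DMSO vehicle control wells.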

CC1(C)CCC(CN2CCN(c3ccc(C(=O)NS(=O)(=O)c4ccc(NCC5CCOCC5)c([N+](=O)[O-])c4)c(Oc4cnc5[nH]ccc5c4)c3)CC2)=C(c2ccc(Cl)cc2)C1 + CN1CCN(c2cc(C(=O)Nc3cc4cc(-c5cnn(C)c5)ccc4cn3)ccn2)CC1
active: viability, T/C [19] 2.85% | viability, T/C [20] 0.83% | viability, T/C [21] 2.34% | viability, T/C [22] 1.27% | viability, T/C [23] 1.79% | viability, T/C [24] 3.68% | viability, T/C [25] 2.29% | viability, T/C [26] 1.33% | viability, T/C [27] 2.68% | viability, T/C [28] 2.94% | viability, T/C [29] 3.79% | viability, T/C [30] 3.42% | viability, T/C [31] 1.77% | viability, T/C [32] 2.36% | viability, T/C [33] 4.56% | viability, T/C [34] 5.88% | viability, T/C [35] 3.51% | viability, T/C [36] 1.68%
< 31.6 nM: IC50 (second compound 1 µM) | IC50 (second compound 3.16 µM) | IC50 (second compound 10 µM)
7820 nM: IC50 (second compound 0.1 µM)
6550 nM: IC50 (second compound 0.316 µM)
8030 nM: IC50 (second compound 0.0316 µM)
inactive: viability, T/C [1] 102% | viability, T/C [2] 112% | viability, T/C [3] 114% | viability, T/C [4] 111% | viability, T/C [5] 122% | viability, T/C [6] 35.4% | viability, T/C [7] 113% | viability, T/C [8] 112% | viability, T/C [9] 112% | viability, T/C [10] 113% | viability, T/C [11] 121% | viability, T/C [12] 32.4% | viability, T/C [13] 86.8% | viability, T/C [14] 97.2% | viability, T/C [15] 94.6% | viability, T/C [16] 95.3% | viability, T/C [17] 104% | viability, T/C [18] 23.5%

CC1COCCN1c1cc(C2(S(C)(=N)=O)CC2)nc(-c2ccnc3[nH]ccc23)n1 (stereo unspecified) + CN1CCN(c2cc(C(=O)Nc3cc4cc(-c5cnn(C)c5)ccc4cn3)ccn2)CC1
6830 nM: IC50 (second compound 0.316 µM)
inactive: viability, T/C [1] 102% | viability, T/C [2] 111% | viability, T/C [3] 102% | viability, T/C [4] 119% | viability, T/C [5] 118% | viability, T/C [6] 107% | viability, T/C [7] 107% | viability, T/C [8] 119% | viability, T/C [9] 113% | viability, T/C [10] 120% | viability, T/C [11] 103% | viability, T/C [12] 90.9% | viability, T/C [13] 88.5% | viability, T/C [14] 88.3% | viability, T/C [15] 74.8% | viability, T/C [16] 75.2% | viability, T/C [17] 60.3% | viability, T/C [18] 44.4%
active: viability, T/C [19] 1% | viability, T/C [20] 1.87% | viability, T/C [21] 1.95% | viability, T/C [22] 1.83% | viability, T/C [23] 1.71% | viability, T/C [24] 2.07% | viability, T/C [25] 1.39% | viability, T/C [26] 2.33% | viability, T/C [27] 2.68% | viability, T/C [28] 2.72% | viability, T/C [29] 3.59% | viability, T/C [30] 1.89% | viability, T/C [31] 1.49% | viability, T/C [32] 2.62% | viability, T/C [33] 2.44% | viability, T/C [34] 1.98% | viability, T/C [35] 1.76% | viability, T/C [36] 3.15%
< 31.6 nM: IC50 (second compound 1 µM) | IC50 (second compound 3.16 µM) | IC50 (second compound 10 µM)
> 10000 nM: IC50 (second compound 0.0316 µM) | IC50 (second compound 0.1 µM)

NC(=O)C(=Cn1cnc(-c2cc(C(F)(F)F)cc(C(F)(F)F)c2)n1)c1cncnc1 + CN1CCN(c2cc(C(=O)Nc3cc4cc(-c5cnn(C)c5)ccc4cn3)ccn2)CC1
2910 nM: IC50 (second compound 0.1 µM)
48.1 nM: IC50 (second compound 0.316 µM)
active: viability, T/C (second compound 0.316 µM, first compound 0.3 µM) 11.8% | viability, T/C (second compound 0.316 µM, first compound 0.949 µM) 4.77% | viability, T/C (second compound 0.316 µM, first compound 3 µM) 3.83% | viability, T/C (second compound 1 µM, first compound 0.00949 µM) 0.93% | viability, T/C (second compound 1 µM, first compound 0.03 µM) 1.37% | viability, T/C (second compound 1 µM, first compound 0.0949 µM) 3.35% | viability, T/C (second compound 1 µM, first compound 0.3 µM) 7.19% | viability, T/C (second compound 1 µM, first compound 0.949 µM) 6.52% | viability, T/C (second compound 1 µM, first compound 3 µM) 6.06% | viability, T/C (second compound 3.16 µM, first compound 0.00949 µM) 1.64% | viability, T/C (second compound 3.16 µM, first compound 0.03 µM) 3.12% | viability, T/C (second compound 3.16 µM, first compound 0.0949 µM) 5.78% | viability, T/C (second compound 3.16 µM, first compound 0.3 µM) 7.76% | viability, T/C (second compound 3.16 µM, first compound 0.949 µM) 10.5% | viability, T/C (second compound 3.16 µM, first compound 3 µM) 8.08% | viability, T/C (second compound 10 µM, first compound 0.00949 µM) 1.73% | viability, T/C (second compound 10 µM, first compound 0.03 µM) 4.63% | viability, T/C (second compound 10 µM, first compound 0.0949 µM) 4.7% | viability, T/C (second compound 10 µM, first compound 0.3 µM) 7.24% | viability, T/C (second compound 10 µM, first compound 0.949 µM) 9.55% | viability, T/C (second compound 10 µM, first compound 3 µM) 6.71%
< 9.49 nM: IC50 (second compound 1 µM) | IC50 (second compound 3.16 µM) | IC50 (second compound 10 µM)
inactive: viability, T/C (second compound 0.0316 µM, first compound 0.00949 µM) 100% | viability, T/C (second compound 0.0316 µM, first compound 0.03 µM) 127% | viability, T/C (second compound 0.0316 µM, first compound 0.0949 µM) 173% | viability, T/C (second compound 0.0316 µM, first compound 0.3 µM) 170% | viability, T/C (second compound 0.0316 µM, first compound 0.949 µM) 142% | viability, T/C (second compound 0.0316 µM, first compound 3 µM) 71.4% | viability, T/C (second compound 0.1 µM, first compound 0.00949 µM) 109% | viability, T/C (second compound 0.1 µM, first compound 0.03 µM) 125% | viability, T/C (second compound 0.1 µM, first compound 0.0949 µM) 155% | viability, T/C (second compound 0.1 µM, first compound 0.3 µM) 129% | viability, T/C (second compound 0.1 µM, first compound 0.949 µM) 79.5% | viability, T/C (second compound 0.1 µM, first compound 3 µM) 49.2% | viability, T/C (second compound 0.316 µM, first compound 0.00949 µM) 71.2% | viability, T/C (second compound 0.316 µM, first compound 0.03 µM) 65.3% | viability, T/C (second compound 0.316 µM, first compound 0.0949 µM) 28.8%
> 3000 nM: IC50 (second compound 0.0316 µM)

Source: PubChem BioAssay AID2060617 (Molecular Pharmacology Branch, DTP, NCI, 2025)
